Measurements as given in patent US20080096894A1, “Anti-Bacterial Compounds” (ASTON UNIVERSITY, priority 2005, published 2008).
Where two headings read alike, the source gives them in different places.

What was measured:
Test in all cases: MIC, agar dilution, multipoint inoculator
MRSA = assay type: cell-based, methicillin-resistant Staphylococcus aureus
Method: (§1) This activity was measured using a multipoint inoculator method as follows. The MIC for each compound was measured using an agar dilution method (Onda, H., et al., Int. J. Antimicrob. Agents. 18, 263 (2001)) (Mueller Hinton agar) by means of a multipoint inoculator delivering 10^4 colony forming units per spot.
‘Staph’ refers to the reference strain of S. aureus (NCTC 6571). A tick in the MRSA column refers to a positive zone against MRSA strain 96-7474, and the MIC range (in μg/ml) which follows is that found against a panel of ten MRSA strains. Where MIC values are given for MRSA, these are stated as a range of values, as testing was carried out on a panel of clinical isolates.

S. epidemisis = assay type: cell-based, Staphylococcus epidermidis; details: upper value of MIC reading
Method: as §1

K. pneumoniae = assay type: cell-based, Klebsiella pneumoniae; details: K. pneumoniae 327; upper value of MIC reading
Method: as §1

S. aureus = assay type: cell-based, Staphylococcus aureus; details: upper value of MIC reading
Method: as §1

B. bronchiseptica = assay type: cell-based; details: B. bronchiseptica NCTC 8344; upper value of MIC reading
Method: as §1

S. haemolyticus = assay type: cell-based; details: S. haemolyticus Isolate 1, upper value of MIC reading
Method: as §1

S. maltophilia = assay type: cell-based; details: S. maltophilia NCTC 10257, upper value of MIC reading
Method: as §1

S. aboni = assay type: cell-based; details: S. aboni NCTC 6017; upper value of MIC reading
Method: as §1

E. faecalis = assay type: cell-based; details: upper value of MIC reading
Method: as §1

P. auriginosa = assay type: cell-based, Pseudomonas aeruginosa; details: P. auriginosa NCTC 6749, upper value of MIC reading
Method: as §1

E. cloacae = assay type: cell-based, Enterobacter cloacae; details: E. cloacae NCTC 11582; upper value of MIC reading
Method: as §1

S. marcesens = assay type: cell-based, Serratia marcescens; details: S. marcesens 4444, upper value of MIC reading
Method: as §1

E. faecium = assay type: cell-based, Enterococcus faecium; details: upper value of MIC reading
Method: as §1

E. coli = assay type: cell-based, Escherichia coli; details: Escherichia coli, 18 h, upper value of MIC reading
Method: as §1

[1] = MRSA Isolate 1, upper value of MIC reading, in µg/mL
[2] = MRSA Isolate 2, upper value of MIC reading, in µg/mL
[3] = MRSA Isolate 3, upper value of MIC reading, in µg/mL
[4] = MRSA Isolate 4, upper value of MIC reading, in µg/mL
[5] = MRSA Isolate 5, upper value of MIC reading, in µg/mL
[6] = MRSA Isolate 6, upper value of MIC reading, in µg/mL
[7] = MRSA Isolate 7, upper value of MIC reading, in µg/mL
[8] = MRSA Isolate 8, upper value of MIC reading, in µg/mL
[9] = MRSA Isolate 9, upper value of MIC reading, in µg/mL
[10] = MRSA Isolate 10, upper value of MIC reading, in µg/mL
[11] = panel of ten MRSA strains (clinical isolates)

NC(=NN=Cc1c(O)ccc2ccccc12)c1cccnc1 [Compound 3PYdb]
256: MIC (MRSA; [1]) | MIC (MRSA; [2]) | MIC (MRSA; [3]) | MIC (MRSA; [4]) | MIC (MRSA; [5]) | MIC (MRSA; [6]) | MIC (MRSA; [7]) | MIC (MRSA; [8]) | MIC (MRSA; [9]) | MIC (MRSA; [10])
266 µg/mL: MIC (S. maltophilia)
256 µg/mL: MIC (S. epidemisis; S. epidemisis Isolate 1) | MIC (S. epidemisis; S. epidemisis NCTC 11047) | MIC (K. pneumoniae) | MIC (S. aureus; S. aureus Cowan 1) | MIC (S. aureus; S. aureus NCTC 6571) | MIC (S. aureus; S. aureus NCTC 10788) | MIC (B. bronchiseptica) | MIC (S. haemolyticus) | MIC (E. faecalis; E. faecalis Isolate 2) | MIC (E. faecalis; E. faecalis Isolate 5) | MIC (P. auriginosa) | MIC (E. cloacae)
128 to 256 µg/mL: MRSA MIC range (MRSA; [11])
32 µg/mL: MIC (S. aboni)

NC(=NN=Cc1ccc(O)c(O)c1)c1ccc2ccccc2n1 [QNca]
64 µg/mL: MIC (S. epidemisis; S. epidemisis Isolate 1) | MIC (S. epidemisis; S. epidemisis NCTC 11047)
128: MIC (MRSA; [1]) | MIC (MRSA; [2]) | MIC (MRSA; [3]) | MIC (MRSA; [4]) | MIC (MRSA; [5]) | MIC (MRSA; [6]) | MIC (MRSA; [7]) | MIC (MRSA; [8]) | MIC (MRSA; [9]) | MIC (MRSA; [10])
64 to 128 µg/mL: MRSA MIC range (MRSA; [11])
256 µg/mL: MIC (S. marcesens) | MIC (K. pneumoniae) | MIC (S. maltophilia) | MIC (S. aboni) | MIC (E. faecalis; E. faecalis EBH1) | MIC (E. faecalis; E. faecalis Isolate 1) | MIC (E. faecalis; E. faecalis Isolate 2) | MIC (E. faecalis; E. faecalis Isolate 3) | MIC (E. faecalis; E. faecalis Isolate 4) | MIC (E. faecalis; E. faecalis Isolate 5) | MIC (E. faecalis; E. faecalis NCTC 5957) | MIC (E. faecium; E. faecium ACTCC 10541) | MIC (E. faecium; E. faecium NCTC 7171) | MIC (P. auriginosa)
128 µg/mL: MIC (S. aureus; S. aureus Cowan 1) | MIC (S. aureus; S. aureus NCTC 6571) | MIC (S. aureus; S. aureus NCTC 10788) | MIC (S. haemolyticus)
32 µg/mL: MIC (E. cloacae)

CCOc1ccccc1C=NN=C(N)c1cccnc1 [Compound 3PYay]
256: MIC (MRSA; [1]) | MIC (MRSA; [10])
> 256 µg/mL: MRSA MIC range (MRSA; [11]) | MIC (S. aureus; S. aureus NCTC 6571)
128 µg/mL: MIC (S. epidemisis; S. epidemisis NCTC 11047) | MIC (E. faecalis; E. faecalis EBH1) | MIC (E. faecalis; E. faecalis Isolate 1) | MIC (E. faecalis; E. faecalis Isolate 2) | MIC (E. faecalis; E. faecalis NCTC 5957) | MIC (P. auriginosa)
256 µg/mL: MIC (S. marcesens) | MIC (K. pneumoniae) | MIC (S. haemolyticus) | MIC (S. maltophilia)
128: MIC (MRSA; [2]) | MIC (MRSA; [3]) | MIC (MRSA; [4]) | MIC (MRSA; [5])

O=Cc1cc([N+](=O)[O-])ccc1O [cj]
16 µg/mL: MIC (S. aureus; S. aureus Cowan 1)
4: MIC (MRSA; [2]) | MIC (MRSA; [6]) | MIC (MRSA; [7]) | MIC (MRSA; [8]) | MIC (MRSA; [9]) | MIC (MRSA; [10])
256 µg/mL: MIC (K. pneumoniae) | MIC (B. bronchiseptica) | MIC (S. maltophilia) | MIC (E. faecalis; E. faecalis Isolate 1) | MIC (E. faecalis; E. faecalis Isolate 5) | MIC (P. auriginosa) | MIC (E. cloacae)
1 µg/mL: MIC (S. aboni)
4 µg/mL: MIC (S. aureus; S. aureus NCTC 6571)
2: MIC (MRSA; [1]) | MIC (MRSA; [3]) | MIC (MRSA; [4]) | MIC (MRSA; [5])
2 µg/mL: MIC (S. epidemisis; S. epidemisis Isolate 1) | MIC (S. epidemisis; S. epidemisis NCTC 11047) | MIC (S. aureus; S. aureus NCTC 10788)

Oc1cc(O)c(C=NNc2ccccn2)c(O)c1 [HDcd]
256 µg/mL: MIC (S. marcesens) | MIC (K. pneumoniae) | MIC (S. aureus; S. aureus Cowan 1) | MIC (S. aureus; S. aureus NCTC 6571) | MIC (S. aureus; S. aureus NCTC 10788) | MIC (B. bronchiseptica) | MIC (E. faecalis; E. faecalis EBH1) | MIC (E. faecalis; E. faecalis Isolate 4) | MIC (E. faecalis; E. faecalis NCTC 5957) | MIC (E. faecium; E. faecium ACTCC 10541) | MIC (E. faecium; E. faecium NCTC 7171) | MIC (P. auriginosa) | MIC (E. cloacae)
128 to 256 µg/mL: MRSA MIC range (MRSA; [11])
256: MIC (MRSA; [1]) | MIC (MRSA; [2]) | MIC (MRSA; [3]) | MIC (MRSA; [4]) | MIC (MRSA; [5]) | MIC (MRSA; [6]) | MIC (MRSA; [7]) | MIC (MRSA; [8]) | MIC (MRSA; [9]) | MIC (MRSA; [10])
128 µg/mL: MIC (S. epidemisis; S. epidemisis Isolate 1) | MIC (S. epidemisis; S. epidemisis NCTC 11047) | MIC (S. haemolyticus) | MIC (S. maltophilia) | MIC (S. aboni) | MIC (E. faecalis; E. faecalis Isolate 1) | MIC (E. faecalis; E. faecalis Isolate 2) | MIC (E. faecalis; E. faecalis Isolate 3) | MIC (E. faecalis; E. faecalis Isolate 5)

CCC(C)(C)c1ccc(/C=N/N=C(\N)c2cccnc2)cc1 [Compound 3PYaf, N^1-[4-(1,1-dimethylpropyl)benzylidene]-pyridine-3-carboxamidrazone]
32 to 64 µg/mL: MIC (MRSA; Staphylococcus aureus, MRSA, 18 h, panel of ten MRSA strains (clinical isolates), read-out: MRSA MIC range)
256 µg/mL: MIC (S. marcesens; Serratia marcescens, 18 h, read-out: MIC)
32 µg/mL: MIC (S. epidemisis; Staphylococcus epidermidis, NCTC11047, 18 h, S. epidemisis NCTC 11047, read-out: MIC)
128 µg/mL: MIC (S. epidemisis; Staphylococcus epidermidis, 18 h, S. epidemisis Isolate 1, read-out: MIC) | MIC (E. faecalis; Enterococcus faecalis, 18 h, E. faecalis EBH1, read-out: MIC) | MIC (E. faecalis; Enterococcus faecalis, 18 h, E. faecalis Isolate 4, read-out: MIC) | MIC (E. faecalis; Enterococcus faecalis, 18 h, E. faecalis Isolate 5, read-out: MIC)
64 µg/mL: MIC (MRSA; Staphylococcus aureus, 18 h, MRSA Isolate 1, upper value of MIC reading, read-out: MIC) | MIC (MRSA; Staphylococcus aureus, 18 h, MRSA Isolate 2, upper value of MIC reading, read-out: MIC) | MIC (MRSA; Staphylococcus aureus, 18 h, MRSA Isolate 3, upper value of MIC reading, read-out: MIC) | MIC (MRSA; Staphylococcus aureus, 18 h, MRSA Isolate 4, upper value of MIC reading, read-out: MIC) | MIC (MRSA; Staphylococcus aureus, 18 h, MRSA Isolate 5, upper value of MIC reading, read-out: MIC) | MIC (MRSA; Staphylococcus aureus, 18 h, MRSA Isolate 6, upper value of MIC reading, read-out: MIC) | MIC (MRSA; Staphylococcus aureus, 18 h, MRSA Isolate 7, upper value of MIC reading, read-out: MIC) | MIC (MRSA; Staphylococcus aureus, 18 h, MRSA Isolate 8, upper value of MIC reading, read-out: MIC) | MIC (MRSA; Staphylococcus aureus, 18 h, MRSA Isolate 9, upper value of MIC reading, read-out: MIC) | MIC (MRSA; Staphylococcus aureus, 18 h, MRSA Isolate 10, upper value of MIC reading, read-out: MIC) | MIC (E. coli; E. coli W3110R+) | MIC (E. coli; E. coli W3110R−) | MIC (S. aureus; Staphylococcus aureus, 18 h, S. aureus Cowan 1, read-out: MIC) | MIC (S. aureus; Staphylococcus aureus, NCTC6571, 18 h, S. aureus NCTC 6571, read-out: MIC) | MIC (S. aureus; Staphylococcus aureus, NCTC10788, 18 h, S. aureus NCTC 10788, read-out: MIC) | MIC (S. haemolyticus; Staphylococcus haemolyticus, 18 h, read-out: MIC) | MIC (S. maltophilia; Stenotrophomonas maltophilia, NCTC10257, 18 h, read-out: MIC) | MIC (E. faecalis; Enterococcus faecalis, 18 h, E. faecalis Isolate 1, read-out: MIC) | MIC (E. faecalis; Enterococcus faecalis, 18 h, E. faecalis Isolate 2, read-out: MIC) | MIC (E. faecalis; Enterococcus faecalis, NCTC5957, 18 h, E. faecalis NCTC 5957, read-out: MIC) | MIC (E. faecium; Enterococcus faecium, 18 h, E. faecium ACTCC 10541, read-out: MIC) | MIC (E. faecium; Enterococcus faecium, NCTC7171, 18 h, E. faecium NCTC 7171, read-out: MIC) | MIC (P. auriginosa; Pseudomonas aeruginosa, NCTC6749, 18 h, read-out: MIC)
